Assay results reported in paper PMC8115122, “Development of Fluorescent and Biotin Probes Targeting NLRP3” (Frontiers in Chemistry, 2021).

Columns and labels:
AIM2 inflammasome = assay: IL-1β release (HTRF) after LPS priming and poly(dA:dT) transfection, AIM2 inflammasome; details: poly(dA:dT)
Protocol: The following experiments were performed with probes 1–4 in immortalized murine bone marrow-derived macrophages. […] For this purpose, AIM2 was stimulated by transfection with poly(deoxyadenylic-deoxythymidylic) acid [poly(dA:dT)] after pretreatment with LPS. A Homogeneous Time Resolved Fluorescence (HTRF) assay was employed to determine the release of IL-1β (Figure 5).

[1] = tested on: AIM2-dependent cell death; assay: LDH release (pyroptosis) after LPS and poly(dA:dT), AIM2-dependent; format: cell-based, murine; details: LPS + poly(dA:dT)
Protocol: […]. All data are means ± SEM (n = 3), Student's t-test. *P ≤ 0.05, **P ≤ 0.01, ***P ≤ 0.001.
To assess pyroptosis, cytosolic lactate dehydrogenase (LDH) release was measured as a marker of cell lysis. […] […]. All assays were performed according to the manufacturer's instructions. A two-tailed unpaired t-test was performed using GraphPad Prism 9.

NLRP3 inflammasome = assay: IL-1β release (HTRF) after LPS priming and nigericin, NLRP3 inflammasome; format: cell-based, murine; details: for effect on cytokine (IL-1β) release: 20 μM
Protocol: The following experiments were performed with probes 1–4 in immortalized murine bone marrow-derived macrophages. Nigericin, an antibiotic carboxylate ionophore, was used as the activator of the NLRP3 inflammasome, owing to its ability to induce a potassium efflux. […] For this purpose, AIM2 was stimulated by transfection with poly(deoxyadenylic-deoxythymidylic) acid [poly(dA:dT)] after pretreatment with LPS. A Homogeneous Time Resolved Fluorescence (HTRF) assay was employed to determine the release of IL-1β (Figure 5).
All data are means ± SEM (n = 3), Student's t-test. *P ≤ 0.05, **P ≤ 0.01, ***P ≤ 0.001.
NLRP3 KO Immortalized murine bone marrow-derived macrophages overexpressing mouse NLRP3-Flag and human ASC-mCerulean were seeded in 96-well plates and incubated for 16 h. Cells were treated with 400 ng/mL ultrapure LPS for 3 h. […] Subsequently, to induce NLRP3 inflammasome activation, cells were treated with 10 μM nigericin for 1.5 h. As controls, to activate the AIM2 inflammasome, cells were transfected with 200 ng of poly(dA:dT) using 0.5 μL lipofectamine 2,000 per well for 4 h. Supernatants were collected to measure cytosolic LDH release by an LDH assay and IL-1ß release by Homogeneous Time Resolved Fluorescence (HTRF). All assays were performed according to the manufacturer's instructions. A two-tailed unpaired t-test was performed using GraphPad Prism 9.

[2] = tested on: NLRP3-dependent cell death; assay: LDH release (pyroptosis) after LPS and nigericin, NLRP3-dependent; format: cell-based, murine; details: LPS + nigericin
Protocol: NLRP3 KO Immortalized murine bone marrow-derived macrophages overexpressing mouse NLRP3-Flag and human ASC-mCerulean were seeded in 96-well plates and incubated for 16 h. Cells were treated with 400 ng/mL ultrapure LPS for 3 h. […] Subsequently, to induce NLRP3 inflammasome activation, cells were treated with 10 μM nigericin for 1.5 h. […] Supernatants were collected to measure cytosolic LDH release by an LDH assay and IL-1ß release by Homogeneous Time Resolved Fluorescence (HTRF). All assays were performed according to the manufacturer's instructions. A two-tailed unpaired t-test was performed using GraphPad Prism 9.

[3] = tested on: immortalized murine bone marrow-derived macrophages; assay: CellTiter-Blue cell viability assay; format: cell-based; details: 4 h in Opti-MEM, tested 625 nM to 40 μM
Protocol: Next, the probes were examined in cell culture experiments. First, we determined the cytotoxicity of probes 1–4 at different concentrations between 625 nM and 40 μM in immortalized murine bone marrow-derived macrophages (Figure 4).
Figure 4 Cell viability of immortalized murine bone marrow-derived macrophages after treatment with probes 1–4. Cells were treated with the probes at different concentrations in Opti-MEM for 4 h. Cell viability was assessed using the CellTiter-Blue cell viability assay.
NLRP3 KO immortalized murine bone marrow-derived macrophages overexpressing mouse NLRP3-FLAG and human ASC-mCerulean were seeded in 96 well plates and incubated overnight. Cells were treated with the fluorescent probes (1 and 2) and the biotin-tagged probes (3 and 4) at different concentrations in Opti-MEM for 4 h. Subsequently, cell viability was assessed using CellTiter-Blue® cell viability assay according to the manufacturer's instructions.

[4] = target: human NLRP3-PYD-NACHT domain protein (Homo sapiens, UniProt Q96P20); assay: SPR single-cycle kinetic binding to immobilized biotinylated NLRP3-PYD-NACHT; details: for kd, first-order off-rate constant for dissociation: SPR, 25 °C, 1:1 binding model; for kon: read-out: ka, second-order on-rate constant for association
Protocol: HEK293T cells were transiently co-transfected with human avi-FLAG-His10-NLRP3-PYD-NACHT domain (pIRES puro 3 vector) and BirA (pcDNA3.1 vector) for in-cell biotinylation at the lysine amino group of the Avi-tag. […] Eluted protein was stored snap frozen in liquid nitrogen, aliquoted, and stored at −80 °C.
(§1) SPR experiments were performed using a Biacore 8K instrument (GE Healthcare). The flow system was cleaned using the maintenance “Desorb” function (Desorb Kit, GE Healthcare). […] Biotinylated NLRP3-PYD-NACHT protein (2 μL/min, 900 s) was immobilized on the sensor chip flow cell 2. The flow system was washed using 50% isopropanol in 1 M NaCl and 50 mM NaOH. Free streptavidin binding sites were blocked by four consecutive 2-min injections (1,000 nM, 10 μL/min) of Biotin-PEG (Mn = 2,300 Da) (Sigma Aldrich). […] Data were collected at a rate of 10 Hz. The binding data were double referenced by blank cycle and reference flow cell subtraction. Data were corrected by a 4-point solvent correction. For kinetic binding experiments, processed data were fitted to a 1:1 interaction model using the Biacore Insight Evaluation Software (version 3.0.12.15655).

human NLRP3-PYD-NACHT = human NLRP3-PYD-NACHT (Homo sapiens, UniProt Q96P20); assay: SPR competition mode (second ligand injected 120 s after the first); details: competition with CRID3/MCC950, equimolar, 10-times the kinetic KD of the test compound, either order of injection
Protocol: as §1

[5] = concentrations of Figure 5 (not given)

Sequence of human NLRP3-PYD-NACHT domain protein (Q96P20 1-649 limits assumed): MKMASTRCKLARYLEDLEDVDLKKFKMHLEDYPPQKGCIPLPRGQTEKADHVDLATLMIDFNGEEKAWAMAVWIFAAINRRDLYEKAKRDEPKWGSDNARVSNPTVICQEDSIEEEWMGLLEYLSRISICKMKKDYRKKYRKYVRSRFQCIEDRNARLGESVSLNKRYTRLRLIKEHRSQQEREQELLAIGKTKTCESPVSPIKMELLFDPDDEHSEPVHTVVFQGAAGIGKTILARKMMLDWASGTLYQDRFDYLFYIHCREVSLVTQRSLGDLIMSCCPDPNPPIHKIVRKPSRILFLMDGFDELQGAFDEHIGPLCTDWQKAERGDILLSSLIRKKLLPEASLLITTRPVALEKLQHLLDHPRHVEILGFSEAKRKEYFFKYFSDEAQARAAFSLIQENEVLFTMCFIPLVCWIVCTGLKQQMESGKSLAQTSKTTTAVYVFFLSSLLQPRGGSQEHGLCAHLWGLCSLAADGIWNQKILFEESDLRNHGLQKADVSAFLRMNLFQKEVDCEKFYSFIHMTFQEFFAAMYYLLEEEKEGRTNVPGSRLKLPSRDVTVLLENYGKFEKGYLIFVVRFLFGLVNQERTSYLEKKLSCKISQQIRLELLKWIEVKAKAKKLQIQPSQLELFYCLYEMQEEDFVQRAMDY
Sequence of human NLRP3-PYD-NACHT (Q96P20 1-649 limits assumed): as above

Row | SMILES | AIM2-dependent IL-1β release (AIM2 inflammasome; [5]) | AIM2-dependent cell death (LDH release) ([1]; 2.5 μM) | inhibition of IL-1β release (NLRP3 inflammasome; 10 μM) | NLRP3-dependent cell death (LDH release) ([2]; 10 μM) | AIM2-dependent cell death (LDH release) ([1]; 10 μM) | non-toxic up to concentration [3] | Kd [4] [nM] | kd, first-order off-rate constant for dissociation [4] [s⁻¹] | kon [4] [M⁻¹ s⁻¹] | inhibition of IL-1β release (NLRP3 inflammasome; 2.5 μM) | AIM2-dependent IL-1β release (AIM2 inflammasome; 2.5 μM) | AIM2-dependent IL-1β release (AIM2 inflammasome; 20 μM, data not shown, attributed to cytotoxicity) | response change indicative of a second binding site (human NLRP3-PYD-NACHT) | NLRP3-dependent cell death (LDH release) ([2]; 2.5 μM) | some cytotoxicity at concentrations higher than [3] | effect on cytokine (IL-1β) release (NLRP3 inflammasome) | melting point [°C]
1 | CC(C)(O)c1coc(S(=O)(=O)NC(=O)Nc2c3c(cc4c2CCC4)CCC3)c1 [CRID3/MCC950, reference compound] | did not affect this process | but not the AIM2-dependent cell death |  |  |  |  |  |  |  |  |  |  |  |  |  |  | 
2 | O=C(COCCOCCNC(=O)c1cc2cc3c4c(c2oc1=O)CCCN4CCC3)NCc1ccc(S(=O)(=O)NC(=O)Nc2c3c(cc4c2CCC4)CCC3)cc1 [Compound 1, N-(2-(2-(2-([4-(N-([1,2,3,5,6,7-Hexahydro-s-indacen-4-yl]carbamoyl)sulfamoyl)benzyl]amino)-2-oxoethoxy)ethoxy)ethyl)-11-oxo-2,3,6,7-tetrahydro-1H,5H,11H-pyrano[2,3-f]pyrido[3,2,1-ij]quinoline-10-carboxamide] | did not affect this process |  | complete inhibition | prevented | but not the AIM2-dependent cell death | up to 10 μM | 813 | 0.01 | 13000 |  |  |  |  |  |  |  | 
3 | O=C(Nc1c2c(cc3c1CCC3)CCC2)NS(=O)(=O)c1ccc(CNC(=O)c2cc3cc4c5c(c3oc2=O)CCCN5CCC4)cc1 [Compound 2] |  | but not the AIM2-dependent cell death |  |  |  |  | 322 | 0.0033 | 10000 | complete inhibition | only a slightly reduced AIM2-dependent release of IL-1β | reduced AIM2-dependent IL-1β release | No significant response change | prevented | higher than 2.5 μM |  | 
4 | O=C(CCCC[C@H]1SC[C@H]2NC(=O)N[C@H]21)NCCOCCOCC(=O)NCc1ccc(S(=O)(=O)NC(=O)Nc2c3c(cc4c2CCC4)CCC3)cc1 [Compound 3, N-(2-(2-(2-([4-(N-([1,2,3,5,6,7-Hexahydro-s-indacen-4-yl]carbamoyl)sulfamoyl)benzyl]amino)-2-oxoethoxy)ethoxy)ethyl)-5-([3aR,4R,6aS]-2-oxohexahydro-1H-thieno[3,4-d]imidazol-4-yl)pentanamide] |  |  |  |  |  | up to 40 μM | 1030 | 0.022 | 22000 |  |  |  |  |  |  | did not significantly affect the cytokine release | 140 to 142
5 | O=C(CCCCC1SCC2NC(=O)NC21)NCc1ccc(S(=O)(=O)NC(=O)Nc2c3c(cc4c2CCC4)CCC3)cc1 (centres unmarked) [Compound 4] |  |  |  |  |  | up to 40 μM | 611 | 0.0088 | 14000 |  |  |  | No significant response change |  |  | did not significantly affect the cytokine release | 
